For 13 molecules, IC50 results are on record in patent US11230555B2, “Bicyclic RORγ modulators” (Escalier Biosciences B.V., priority 2018, dated 2022).

The target of this experiment is T1, RORγt (Homo sapiens, UniProt P51449).
T1 construct: purchased reporter-cell kit
T1 sequence (P51449 269-508 limits assumed): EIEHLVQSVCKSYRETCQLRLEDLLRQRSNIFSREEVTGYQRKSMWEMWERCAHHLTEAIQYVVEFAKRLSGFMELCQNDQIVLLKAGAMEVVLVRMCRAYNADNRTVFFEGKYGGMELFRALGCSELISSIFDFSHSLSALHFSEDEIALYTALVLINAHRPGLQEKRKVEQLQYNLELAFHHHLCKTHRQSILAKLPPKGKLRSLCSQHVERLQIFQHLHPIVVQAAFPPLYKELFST
The experiment is described as follows: Gal4 ligand binding assay (RORγt Gal fusion reporter assay). It is filed as cell-based. Conditions: inverse agonists, luciferase reporter, 24h. In a few lines:
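GAL4-DBD/RORγ(t) fusion stably expressed with a Gal4-UAS luciferase reporter in […] cells, which are constitutively active. Compounds were given as 2× media with 10 points from 60 μM to 3 nM (final DMSO 0.2%) for 24 h at 37° C, 5% CO2. Luminescence was normalized to DMSO control wells.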
Usually IC50 stands for the concentration at which inhibition is half-maximal. The low end stands for higher potency, the high end for lower potency. For `CCc1c(-c2ccc(C(O)(C(F)(F)F)C(F)(F)F)cc2F)cc(F)c(CN2CC3CCC(C2)N3S(C)(=O)=O)c1F` [Example 13, 2-(2′-ethyl-2,3′,5′-trifluoro-4′-((8-(methylsulfonyl)-3,8-diazabicyclo[3.2.1]octan-3-yl)methyl)-[1,1′-biphenyl]-4-yl)-1,1,1,3,3,3-hexafluoropropan-2-ol], the half-maximal inhibitory concentration (IC50) is < 0.05 µM.
In the case of `OC(c1ccc(-c2ccc(CN3CC4CCC(C3)N4Cc3ccncc3)cc2F)cc1)(C(F)(F)F)C(F)(F)F` [Example 59, 1,1,1,3,3,3-hexafluoro-2-(2′-fluoro-4′-((8-(pyridin-4-ylmethyl)-3,8-diazabicyclo[3.2.1]octan-3-yl)methyl)-[1,1′-biphenyl]-4-yl)propan-2-ol] it was > 0.25 µM; in that of `COCCC(=O)N1C2CCC1CN(Cc1ccc(-c3ccc(C(O)(C(F)(F)F)C(F)(F)F)cc3)c(C)c1)C2` [Example 45, 1-(3-((4′-(1,1,1,3,3,3-hexafluoro-2-hydroxypropan-2-yl)-2-methyl-[1,1′-biphenyl]-4-yl)methyl)-3,8-diazabicyclo[3.2.1]octan-8-yl)-3-methoxypropan-1-one], > 0.25 µM.
In the case of `Cc1cc(CN2C3CCC2CN(Cc2ccc(-c4ccc(C(O)(C(F)(F)F)C(F)(F)F)cc4)c(C)c2)C3)ccn1` [Example 66, 1,1,1,3,3,3-hexafluoro-2-(2′-methyl-4′-((8-((2-methylpyridin-4-yl)methyl)-3,8-diazabicyclo[3.2.1]octan-3-yl)methyl)-[1,1′-biphenyl]-4-yl)propan-2-ol] it was > 0.25 µM.
As for `CCc1cc(CN2CC3CCC(C2)N3S(C)(=O)=O)cc(F)c1-c1ccc(C(O)(C(F)(F)F)C(F)(F)F)cc1F` [Example 17, 2-(2′-ethyl-2,6′-difluoro-4′-((8-(methylsulfonyl)-3,8-diazabicyclo[3.2.1]octan-3-yl)methyl)-[1,1′-biphenyl]-4-yl)-1,1,1,3,3,3-hexafluoropropan-2-ol], the IC50 is < 0.05 µM.
The figure for `CCc1c(F)c(CN2CC3CCC(C2)N3S(C)(=O)=O)cc(F)c1-c1ccc(C(O)(C(F)(F)F)C(F)(F)F)cc1C` [Example 30, 2-(2′-ethyl-3′,6′-difluoro-2-methyl-4′-((8-(methylsulfonyl)-3,8-diazabicyclo[3.2.1]octan-3-yl)methyl)-[1,1′-biphenyl]-4-yl)-1,1,1,3,3,3-hexafluoropropan-2-ol] is < 0.05 µM.
The figure for `CCc1cc(CN2CC3CCC(C2)N3S(C)(=O)=O)ccc1-c1ccc(C(O)(C(F)(F)F)C(F)(F)F)cc1C(N)=O` [Example 31, 2′-ethyl-4-(1,1,1,3,3,3-hexafluoro-2-hydroxypropan-2-yl)-4′-((8-(methylsulfonyl)-3,8-diazabicyclo[3.2.1]octan-3-yl)methyl)-[1,1′-biphenyl]-2-carboxamide] is > 0.25 µM; for `OC(c1ccc(-c2ccc(CN3CC4CCC(C3)N4Cc3ccncc3)cc2C(F)(F)F)cc1)(C(F)(F)F)C(F)(F)F` [Example 58, 1,1,1,3,3,3-hexafluoro-2-(4′-((8-(pyridin-4-ylmethyl)-3,8-diazabicyclo[3.2.1]octan-3-yl)methyl)-2′-(trifluoromethyl)-[1,1′-biphenyl]-4-yl)propan-2-ol] it is < 0.05 µM; for `CC(C)c1cc(CN2CC3CCC(C2)N3S(C)(=O)=O)ccc1-c1ccc(C(O)(C(F)(F)F)C(F)(F)F)cc1F` [Example 21] it is 0.05 to 0.25 µM.
The figure for `CCc1cc(CN2CC3CCC(C2)N3S(C)(=O)=O)ccc1-c1ccc(C(O)(C(F)(F)F)C(F)(F)F)cc1C` [Example 34, 2-(2′-ethyl-2-methyl-4′-((8-(methylsulfonyl)-3,8-diazabicyclo[3.2.1]octan-3-yl)methyl)-[1,1′-biphenyl]-4-yl)-1,1,1,3,3,3-hexafluoropropan-2-ol] is < 0.05 µM; for `Cc1cc(CN2CC3CCC(C2)N3Cc2ccnnc2)ccc1-c1ccc(C(O)(C(F)(F)F)C(F)(F)F)cc1` [Example 51, 1,1,1,3,3,3-hexafluoro-2-(2′-methyl-4′-((8-(pyridazin-4-ylmethyl)-3,8-diazabicyclo[3.2.1]octan-3-yl)methyl)-[1,1′-biphenyl]-4-yl)propan-2-ol] it is < 0.05 µM; for `OC(c1ccc(-c2ccc(CN3CC4CCC(C3)N4Cc3ccncc3)cc2)cc1)(C(F)(F)F)C(F)(F)F` [Example 1, 1,1,1,3,3,3-hexafluoro-2-(4′-((8-(pyridin-4-ylmethyl)-3,8-diazabicyclo[3.2.1]octan-3-yl)methyl)-[1,1′-biphenyl]-4-yl)propan-2-ol] it is 0.05 to 0.25 µM.
Consider `CCc1cc(CN2CC3CC2CN3S(C)(=O)=O)ccc1-c1ccc(C(O)(C(F)(F)F)C(F)(F)F)cc1` (stereo not shown) [Example 38, 2-(2′-ethyl-4′-((5-(methylsulfonyl)-2,5-diazabicyclo[2.2.1]heptan-2-yl)methyl)-[1,1′-biphenyl]-4-yl)-1,1,1,3,3,3-hexafluoropropan-2-ol], for which the IC50 was < 0.05 µM.
